Reference: patent publication US20070167502A1, “Association between a heterocyclic compound and an antioxidant agent” (priority 2004, published 2007)

System: Male C57 Black 6 ob/ob mice
Assay: Change in body weight of ob/ob mice after 7 days of treatment
Assay type: in vivo
Details: intraperitoneal route once a day for 7 days, weight after 7 days of treatment
Protocol: Male C57 Black 6 ob/ob mice from 8 to 12 weeks old were used. […] After being weighed, the various compounds under test were injected by the intraperitoneal route once a day for 7 days. The compounds were injected in a solution of DMSO 5%/Solutol 15%/qsp H2O heated at 65° C. to ensure good dissolution. In addition, the solution was pre-heated before injection. The mice were weighed every day and the weight obtained after 7 days of treatment was recorded.

Structure (SMILES)	reduction in the weight gain
CCOC(Cc1ccc(OCCn2c(=O)sc3cc(C(=NO)c4ccccc4)ccc32)cc1)C(=O)O (centres unmarked) [2-ethoxy-3-{4-[2-(6-[(hydroxyimino)(phenyl)methyl]-2-oxo-1,3-benzothiazol-3(2H)-yl)ethoxy]phenyl}propanoic acid]	10%
COC1=C(OC)C(=O)C(C/C=C(\C)CC/C=C(\C)CC/C=C(\C)CC/C=C(\C)CC/C=C(\C)CC/C=C(\C)CC/C=C(\C)CC/C=C(\C)CC/C=C(\C)CCC=C(C)C)=C(C)C1=O [coenzyme Q10]	does not reduce the weight gain
